Measured values taken from patent US11912685B2, “Biphenyl diaryl pyrimidine derivative with aromatic heterocyclic structure” (priority 2021, dated 2024).

What was measured:
HIV-1-IIIB strain = experiment: Anti-HIV activity: protection of HIV-infected MT-4 cells from HIV-induced cytopathy (MTT assay); settings: for SI(IIIB), selection index (CC50/EC50): HIV-1 IIIB, MT-4 cells; for EC50: Human immunodeficiency virus 1, IIIB, MT4
Protocol: (§1) The test was performed as follows. […] The toxicity test was performed in parallel with the anti-HIV activity test. […] Moreover, a selection index (SI=[…]) was also calculated.
The anti-HIV activity of the compound to be tested was evaluated by the inhibitory effect on the HIV-induced cytopathy in the cell.
Viruses: HIV-1-IIIB strain and HIV-2 ROD strain.
(§2) The compound to be tested was dissolved in DMSO or water and diluted gradiently with phosphate-buffered saline solution. […] 100 μL of a virus dilution at an appropriate concentration was added, and co-cultured with the MT-4 cells at 37° C. for 1 h. Then, the MT-4 cells were collected, washed three times, resuspended with a culture medium with or without the compound to be tested and cultured at 37° C. and 5% CO2 for 7 d. On the third day of the infection, the culture medium was correspondingly replaced with the culture medium with or without the compound to be tested. Each culture process was repeated twice. The HIV-induced cytopathy was monitored daily with a reverse optical microscope. […] Considering that the DMSO may affect the antiviral activity of the compound to be tested, it is necessary to design a blank control using the same concentration of DMSO.

MT-4 cells = experiment: Cytotoxicity in uninfected MT-4 cells (MTT assay); type: cell-based; settings: Mean ± SD, at least three independent experiments
Protocol: as §1, §2

[1] = prior art; cited from earlier work
[2] = Cytotoxicity in uninfected MT-4 cells (MTT assay); type: cell-based; settings: human, uninfected MT-4 cells, Mean ± SD, at least three independent experiments
Protocol: as §1, §2

In the case of `Cc1cc(C#N)cc(C)c1Oc1nc(Nc2ccc(C#N)cc2)nc(N)c1Br` [ETR, Etravirine, reference compound], the “SI(IIIB), selection index (CC50/EC50)” value (HIV-1-IIIB strain) is reported as over 1159, the EC50 (HIV-1-IIIB strain) is reported as 4 ± 0.68 nM and the CC50 (MT-4 cells) is reported as over 4600 nM. For the same compound, the water solubility [1] was under 1 µg/mL.
With `O=C1Nc2ccc(Cl)cc2[C@@](C#CC2CC2)(C(F)(F)F)O1` [EFV, Efavirenz, reference compound] the “SI(IIIB), selection index (CC50/EC50)” value (HIV-1-IIIB strain) was over 1600, the EC50 (HIV-1-IIIB strain) was 4 ± 1.5 nM and the CC50 (MT-4 cells) was over 6330 nM.
For `N#Cc1ccc(Nc2nccc(Nc3c(F)cc(-c4ccnc(F)c4F)cc3F)n2)cc1` [compound 17], the “SI(IIIB), selection index (CC50/EC50)” value (HIV-1-IIIB strain) was >147,059, the EC50 (HIV-1-IIIB strain) was 2 ± 0.48 nM and the CC50 (MT-4 cells) was over 286000 nM.
With `N#Cc1ccc(Nc2nccc(Nc3c(F)cc(-c4cccnc4)cc3F)n2)cc1` [compound 2] the “SI(IIIB), selection index (CC50/EC50)” value (HIV-1-IIIB strain) was 32,698, the EC50 (HIV-1-IIIB strain) was 7.4 ± 1.76 nM and the CC50 (MT-4 cells) was 242000 ± 42000 nM.
With `N#Cc1ccc(Nc2nccc(Nc3c(F)cc(-c4ccnc(-c5ccnc(Cl)c5)c4)cc3F)n2)cc1` [compound 19] the “SI(IIIB), selection index (CC50/EC50)” value (HIV-1-IIIB strain) was 3068, the EC50 (HIV-1-IIIB strain) was 16.8 ± 3 nM and the CC50 (MT-4 cells) was 51000 ± 41000 nM.
For `N#Cc1ccc(Nc2nccc(Nc3c(F)cc(-c4coc5ccccc45)cc3F)n2)cc1` [compound 12], the “SI(IIIB), selection index (CC50/EC50)” value (HIV-1-IIIB strain) was 1991, the EC50 (HIV-1-IIIB strain) was 44 ± 10.1 nM and the CC50 (MT-4 cells) was 87000 ± 54000 nM.
In the case of `N#Cc1ccc(Nc2nccc(Nc3c(F)cc(-c4cn[nH]c4)cc3F)n2)cc1` [compound 8], the “SI(IIIB), selection index (CC50/EC50)” value (HIV-1-IIIB strain) is reported as 298, the EC50 (HIV-1-IIIB strain) is reported as 10 ± 6 nM and the CC50 (MT-4 cells) is reported as 3100 ± 1700 nM.
For `N#Cc1ccc(Nc2nccc(Nc3c(F)cc(-c4ccnc(C#N)c4F)cc3F)n2)cc1` [compound 14], the “SI(IIIB), selection index (CC50/EC50)” value (HIV-1-IIIB strain) was >142,857, the EC50 (HIV-1-IIIB strain) was 1.98 ± 0.42 nM and the CC50 (MT-4 cells) was over 282000 nM.
With `N#Cc1ccc(Nc2nccc(Nc3c(F)cc(-c4ccc(N)cc4)cc3F)n2)cc1` [compound 23] the “SI(IIIB), selection index (CC50/EC50)” value (HIV-1-IIIB strain) was >32,895, the EC50 (HIV-1-IIIB strain) was 9.2 ± 3.6 nM and the CC50 (MT-4 cells) was over 303000 nM.
In the case of `Cc1cc(-c2cc(F)c(Nc3ccnc(Nc4ccc(C#N)cc4)n3)c(F)c2)ccn1` [compound 20], the “SI(IIIB), selection index (CC50/EC50)” value (HIV-1-IIIB strain) is reported as 777, the EC50 (HIV-1-IIIB strain) is reported as 4.1 ± 1.1 nM and the CC50 (MT-4 cells) is reported as 3200 ± 1100 nM.
With `N#Cc1ccc(Nc2nccc(Nc3c(F)cc(-c4ccoc4)cc3F)n2)cc1` [compound 5] the “SI(IIIB), selection index (CC50/EC50)” value (HIV-1-IIIB strain) was 3291, the EC50 (HIV-1-IIIB strain) was 3.2 ± 0.18 nM and the CC50 (MT-4 cells) was 10600 ± 1800 nM.
For `N#Cc1ccc(Nc2nccc(Nc3c(F)cc(-c4ccsc4)cc3F)n2)cc1` [compound 7], the “SI(IIIB), selection index (CC50/EC50)” value (HIV-1-IIIB strain) was 14032, the EC50 (HIV-1-IIIB strain) was 3.9 ± 1.4 nM and the CC50 (MT-4 cells) was 55400 ± 18700 nM.
With `N#Cc1ccc(Nc2nccc(Nc3c(F)cc(-c4ccco4)cc3F)n2)cc1` [compound 4] the “SI(IIIB), selection index (CC50/EC50)” value (HIV-1-IIIB strain) was 7910, the EC50 (HIV-1-IIIB strain) was 2.1 nM and the CC50 (MT-4 cells) was 16600 ± 6900 nM.
For `N#Cc1ccc(Nc2nccc(Nc3c(F)cc(-c4cncnc4)cc3F)n2)cc1` [compound 3], the “SI(IIIB), selection index (CC50/EC50)” value (HIV-1-IIIB strain) was 229, the EC50 (HIV-1-IIIB strain) was 11.9 ± 3.2 nM and the CC50 (MT-4 cells) was 2700 ± 1700 nM.
For `N#Cc1ccc(Nc2nccc(Nc3c(F)cc(-c4ccnc(F)c4)cc3F)n2)cc1` [compound 9], the “SI(IIIB), selection index (CC50/EC50)” value (HIV-1-IIIB strain) was 1311, the EC50 (HIV-1-IIIB strain) was 3.8 ± 3.2 nM and the CC50 (MT-4 cells) was 5000 ± 900 nM.
In the case of `N#Cc1ccc(Nc2nccc(Nc3c(F)cc(-c4ccnc(Cl)c4)cc3F)n2)cc1` [compound 18], the “SI(IIIB), selection index (CC50/EC50)” value (HIV-1-IIIB strain) is reported as 622, the EC50 (HIV-1-IIIB strain) is reported as 6.8 ± 3.4 nM and the CC50 (MT-4 cells) is reported as 4200 ± 450 nM.
In the case of `N#Cc1ccc(Nc2nccc(Nc3c(F)cc(-c4cc(Cl)nc(Cl)c4)cc3F)n2)cc1` [compound 10], the “SI(IIIB), selection index (CC50/EC50)” value (HIV-1-IIIB strain) is reported as 97, the EC50 (HIV-1-IIIB strain) is reported as 56 ± 32.6 nM and the CC50 (MT-4 cells) is reported as 5400 ± 540 nM.
For `N#Cc1ccc(Nc2nccc(Nc3c(F)cc(-c4csc5ccccc45)cc3F)n2)cc1` [compound 13], the “SI(IIIB), selection index (CC50/EC50)” value (HIV-1-IIIB strain) was 132, the EC50 (HIV-1-IIIB strain) was 124 ± 78 nM and the CC50 (MT-4 cells) was 16000 ± 6000 nM.
With `Cc1cc(-c2cc(F)c(Nc3ccnc(Nc4ccc(C#N)cc4)n3)c(F)c2)cc(C)n1` [compound 21] the “SI(IIIB), selection index (CC50/EC50)” value (HIV-1-IIIB strain) was 21, the EC50 (HIV-1-IIIB strain) was 56 ± 18 nM and the CC50 (MT-4 cells) was 1200 ± 110 nM.
With `N#Cc1ccc(Nc2nccc(Nc3c(F)cc(-c4cccs4)cc3F)n2)cc1` [compound 6] the “SI(IIIB), selection index (CC50/EC50)” value (HIV-1-IIIB strain) was >74,627, the EC50 (HIV-1-IIIB strain) was 4.1 ± 2 nM and the CC50 (MT-4 cells) was over 308000 nM.
For `COc1cc(-c2cc(F)c(Nc3ccnc(Nc4ccc(C#N)cc4)n3)c(F)c2)ccn1` [compound 22], the “SI(IIIB), selection index (CC50/EC50)” value (HIV-1-IIIB strain) was 501, the EC50 (HIV-1-IIIB strain) was 13 ± 2.9 nM and the CC50 (MT-4 cells) was 6700 ± 980 nM.
With `N#Cc1ccc(Nc2nccc(Nc3c(F)cc(-c4ccncc4F)cc3F)n2)cc1` [compound 15] the “SI(IIIB), selection index (CC50/EC50)” value (HIV-1-IIIB strain) was 2566, the EC50 (HIV-1-IIIB strain) was 1.3 ± 0.6 nM and the CC50 (MT-4 cells) was 3300 ± 1500 nM.
With `N#Cc1ccc(Nc2nccc(Nc3c(F)cc(-c4cc(F)nc(F)c4)cc3F)n2)cc1` [compound 16] the “SI(IIIB), selection index (CC50/EC50)” value (HIV-1-IIIB strain) was 1966, the EC50 (HIV-1-IIIB strain) was 5.6 ± 1.5 nM and the CC50 (MT-4 cells) was 11000 ± 6800 nM.
With `N#Cc1ccc(Nc2nccc(Nc3c(F)cc(-c4ccnc(Cl)c4Cl)cc3F)n2)cc1` [compound 11] the “SI(IIIB), selection index (CC50/EC50)” value (HIV-1-IIIB strain) was 3673, the EC50 (HIV-1-IIIB strain) was 5.5 ± 0.7 nM and the CC50 (MT-4 cells) was 20000 ± 16000 nM.
`Cc1ccnc2c1NC(=O)c1cccnc1N2C1CC1` [NVP, Nevirapine, reference compound] showed a CC50 at 7 d [2] of over 15000 nM.
